The values below are quoted from earlier work in patent publication US7893091B2, “Combination therapy for the treatment of urinary frequency, urinary urgency and urinary incontinence” (Merck Sharp & Dohme Corp., priority 2005, dated 2011).

The test system of series [1] is rats.
The test system of series [2] is C-fibers. Conditions: instilled directly into the bladder.
Series [3] has as its system rats. This is another data set of the same source.
Series [4] relates to C-fibers. Conditions: more potent than capsaicin.
Series [5] relates to isolated bladder strips. Conditions: tissue bath.
The test system of series [6] is decerebrate cats.
Series [7] has as its system guinea pig.

Turning to `C[C@H](Cc1ccc2c(c1)OC(C(=O)[O-])(C(=O)[O-])O2)NC[C@H](O)c1cccc(Cl)c1.[Na+].[Na+]` [CL316243], the “voiding interval in the hyperreflexia paradigms” value in series [1] (administered intravenously) is reported as “dose-dependently normalizes voiding interval”. The “spontaneous bladder contractions in the detrusor instability paradigm” value in series [1] (administered orally) is “dose-dependent inhibition”. For the same compound, the bladder pressure result in series [1] (intravenous administration) is listed as “reduces bladder pressure”. In addition, in series [1] (intravenous administration, prolongation of micturition interval without increasing residual urine volume), the “bladder capacity in cystomeric studies” value is on record as “increases bladder capacity”.

As to `COc1cc(CNC(=O)CCCC/C=C/C(C)C)ccc1O` [Capsaicin], in series [2], the “beneficial effects (i.e. increased bladder capacity), share of patients” value was ~70 % of patients.

On to `COc1ccccc1CC(=N)N1C[C@@H]2C(=O)CCC(c3ccccc3)(c3ccccc3)[C@@H]2C1` [RP 67580], for which, in series [3] (rats, i.t. versus i.v. administration), the “volume threshold in cyclophosphamide-induced model of bladder overactivity” value is recorded as “increased the volume threshold after i.t., but not i.v. administration”.

With `C=C(C)[C@]12C[C@@H](C)[C@@]34O[C@](Cc5ccccc5)(O[C@@H]1[C@@H]3C=C(COC(=O)Cc1ccc(O)c(OC)c1)C[C@]1(O)C(=O)C(C)=C[C@@H]41)O2` [Resinferatoxin], the “potency relative to capsaicin” value in series [4] is approximately 100 fold.

For the compound `CC(=O)NC1(c2ccccc2)CCN(CC[C@H](CN(C)C(=O)c2ccccc2)c2ccc(Cl)c(Cl)c2)CC1` [SR 48968], in series [3] (10 nmol/rat), the “response in cyclophosphamide-induced model of bladder overactivity” value is listed as “moderate response”.

With `Cc1ccc(-c2c3n(c(=O)c4ncccc24)CC[C@@H](C)CN(Cc2cc(C(F)(F)F)cc(C(F)(F)F)c2)C3=O)cc1` [TAK-637], the “carbachol or electrical field stimulation induced contractions of isolated bladder strips” value in series [5] was “had no effect”. Further, the “micturition reflex induced by electrical stimulation of the rostral brainstem near the locus coeruleus” value in series [6] (3 mg/kg i.v.) is on record as “did not inhibit”. For the same compound, the voiding efficiency entry in series [6] (decerebrate cats, 0.1, 0.3, 1 and 3 mg/kg i.v.) is reported as “without any significant reduction”. In series [6] (decerebrate cats, 0.1, 0.3, 1 and 3 mg/kg i.v., dose-dependent), the “increase in bladder capacity (maximal increase)” value was 94%. Also, the “micturition reflex induced by topical application of capsaicin onto the surface of the bladder dome” value in series [7] is recorded as “inhibited”. In addition, the “distension-induced rhythmic bladder contractions” value in series [7] (systemic administration) was “decreased the number but not the amplitude”.
